{"source": "patent US20240158447A1", "about": "“PEPTIDES FOR USE IN THE TREATMENT OR PREVENTION OF MYOCARDIAL DAMAGE” (THE UNIVERSITY OF WESTERN AUSTRALIA, priority 2020, published 2024)", "key": {"[1]": {"tested_on": "cTnI.2 wt myocytes", "test": "Flavoprotein oxidation response to BayK(−), wt myocytes (Example 10)", "type": "cell-based, mouse", "details": "0.5 μM peptide 20 min, 10 μM BayK(−), FIG. 10B", "protocol": "In this experiment wt myocytes were pre-exposed to 0.1, 0.5 or 1 μM for 20 min and assessed changes in flavoprotein oxidation and ψm.\nMeasurement of mitochondrial flavoprotein oxidation: Flavoprotein autofluorescence was used to measure flavoprotein oxidation based on previously described methods (Yaniv Y, Juhaszova M, Lyashkov A E, Spurgeon H A, Sollott S J, Lakatta E G. Ca2+-regulated-cAMP/PKA signaling in cardiac pacemaker cells links ATP supply to demand. J Mol Cell Cardiol. 2011; 51(5):740-8). […] Fluorescent images were acquired at 1 min intervals with 200 ms exposure. Metamorph 6.3 (Version 7.10.3) was used to quantify the signal by manually tracing myocytes. An equivalent region not containing cells was used as background and was subtracted. Fluorescence values recorded over 5 min before and 5 min after addition of drugs were averaged and alterations in fluorescent ratios reported as the percentage increase from the basal average. FCCP (50 μM) and NaCN (40 mM) was added at the end of each experiment to achieve a respective maximal and minimal fluorescence value indicative of maximal and minimal flavoprotein oxidation.\nThe ICA-L agonist BayK(−) was used to activate the channel and assess mitochondrial function. […] FIG. 10 presents the mean+/−SEM of flavoprotein fluorescence from cTnI.2 wt and cTnI-G2035 mutant myocytes before and after exposure to 10 μM BayK(−) in the presence of 1 μM AID(S)-TAT, and increasing concentrations of variant peptides as indicated. N=no. of animals, n=no. of cardiomyocytes. P values shown compared with AID(S)-TAT as determined by the Kruskal-Wallis test."}, "[2]": {"tested_on": "myocytes isolated from cTnI-G203S mutant mouse hearts", "test": "Mitochondrial flavoprotein oxidation after BayK(−), myocytes from HCM hearts (Example 6)", "type": "cell-based", "details": "FIG. 5", "protocol": "FIG. 5 presents the effect of mutant peptides on flavoprotein oxidation, a measure of metabolic activity and oxygen consumption in myocytes isolated from cTnI-G203S mutant mouse hearts that are hypertrophic.\nAll in vitro studies were performed in freshly isolated myocytes at 37° C. […] Following a 20 min incubation with 0.5-1 μM AID(S)-TAT, AID-TAT, peptide 6 or peptide 7, fluorescent signal of individual myocytes was quantified using Metamorph 6.3 to measure signal intensity of manually traced cell regions. An equivalent region not containing cells was used for background and was subtracted.\nAutofluorescence was used to measure flavoprotein oxidation in cardiac myocytes based on previously described methods (480 nm ex, 535 nm em). Fluorescent images were taken at 1 min intervals with 1 s exposure before and after exposure to L-type Ca2+ channel agonist BayK(−). Fluorescence was reported as a percentage from the baseline pre-treatment average."}, "[3]": {"target": "T1, Cavβ2 subunit (Homo sapiens, UniProt Q08289)", "T1 construct": "incubated with 100 μg of Cavβ2 subunit from cardiac homogenate and cytoplasmic protein preparation; from tissue; host or cells: cardiac homogenate and cytoplasmic protein preparation", "test": "Competitive binding affinity assay, biotinylated AID affinity beads vs Cavβ2 subunit (Example 9)", "details": "dose-response 0, 10 nM to 100 μM peptide; FIG. 9", "protocol": "In this experiment, a binding affinity assay was utilized to examine the binding efficacy of AID peptide variants presented in Table 8, compared to the original AID peptide.\nBiotinylation of original AID (no TAT): For each reaction (a dose-response curve consisted of 6 reactions), 0.02 nM […] was incubated in biotinylation solution (0.1M MES buffer containing 1 nM amine-PEG11-biotin and 0.2 nM EDC) for 2 hrs at room temperature with agitation (400 rpm). Affinity beads (Dynabeads M-280 Streptavidin, ThermoFisher Scientific) were then incubated with biotinylated AID peptide for 30 min at room temperature with agitation (400 rpm). Afterwards, biotinylated AID-coated affinity beads were washed, initially in 0.1% BSA in PBS and then three times in PBS for 3 min.\nBiochem J. 2000; 348 Pt 3:657-65; Haase H, Striessnig J, Holtzhauer M, Vetter R, Glossmann H. A rapid procedure for the purification of cardiac 1,4-dihydropyridine receptors from porcine heart. Eur J Pharmacol. 1991; 207(1):51-9).\nCompetitive binding of AID-affinity beads and Cavβ2 subunit: Cavβ2-AID mutant peptide dilutions were then incubated with biotinylated AID-coated affinity beads for 2 hrs at room temperature with gentle agitation (400 rpm). Samples were placed on a magnetic stand to allow affinity beads to migrate to the magnet. Supernatant was removed and treated with 1× sample buffer (62.5 mM Tris-HCl, pH 6.8, 2% SDS, 10% glycerol, 100 mM DTT, 0.002% Bromophenol Blue) for 5 min at 95° C. Resulting protein was analysed by immunoblot."}, "[4]": {"target": "T2, L-type Ca^2+ channel β2 subunit (Homo sapiens, UniProt Q08289)", "T2 construct": "from tissue; host or cells: whole heart (cardiac) lysate", "test": "Binding competition assay of variant peptides for the β2 subunit (AID-coated beads, heart lysate, SDS-PAGE)", "details": "competition with bead-bound AID peptide, whole heart lysate, immunoblot densitometry; FIG. 2", "protocol": "The affinity of each of the variant peptides to the β2 subunit was investigated through binding competition assays.\nPureProteome™ NHS FlexiBind Magnetic Beads (Cat. #LSKMAGN04, Merck) were used following manufacturer recommendations. Aminohexanoic acid linked AID peptide was bound to the NHS flexibind magnetic beads at a concentration of more than 2 mg/mL to obtain saturation of the beads with peptide. Beads were first primed with an equilibration buffer (1 mM HCL) to prepare them for binding. The Ahx-AID peptide was dissolved in wash/coupling buffer (PBS, pH 7.4) and added to the beads. The beads-AID peptide mixture was left to mix uniformly on a multiplate shaker at a speed of 300 rpm at room temperature for 2 hours. To reduce non-specific binding the beads were incubated in Quench Buffer (100 mM Tris-HCl, 150 mM NaCl, pH 8.0) at room temperature for 1 hour.\nThe AID-peptide bound beads were split into 5 aliquots for the 5 samples prepared in Table 5. The whole heart lysate added to each of the peptide-bound beads to allow competitive binding for 2 hours at room temperature.\nUpon completion, the conjugate was washed in coupling buffer, to remove unbound fraction. SDS sample buffer was added to the beads, with the tubes then heated for 5 minutes at 95° C. The eluted sample stored at −20° C. to be run through sodium dodecyl sulfate-polyacrymalide gel electrophoresis (SDS-PAGE) to determine the binding affinity of each of the variants.\nThe use of streptavidin dynabeads and biotinylated peptide was developed to improve the binding affinity assays. The peptide was initially biotinylated using EZ-link amine-PEG11-biotin (Spacer arm: 53.2 Å, Thermofisher Scientific, Cat. #26136) which was dissolved in 0.1M MES buffer ((2-N-morpholino)-ethanesulfonic acid) at a concentration of 1 mM. Just prior to the reaction, 0.1M EDC (N-(3-Dimethylaminopropyl)-N′-ethylcarbodiimide hydrochloride) was dissolved in MES buffer. In order to achieve complete biotinylation of the AID peptide, a 50× molar excess of biotin to peptide was required, with the total volumes of each component required shown in Table 6.\nEach 78 μL aliquot of the biotinylated peptide shown in […] was enough for 6 reactions, covering the range of concentrations in which the heart lysate was again prepared with varying concentrations of the variant AID peptides according to Table 7.\nThe 78 μL aliquot of biotinylated AID-peptide was mixed with streptavidin dynabeads (1 mg Dynabeads per every 200 pmol biotinylated peptide) for half an hour at room temperature. The heart lysate ([…]) was incubated with the variant peptides at room temperature for 2 hours. After removing all unbound peptide from the beads, they were mixed with the pre-bound heart lysate for 2 hours at room temperature. The unbound fraction was removed. […]"}, "[5]": {"tested_on": "cTnI-G203S mice", "test": "Echocardiography of pre-cardiomyopathic cTnI-G203S mice (Example 15)", "type": "in vivo, mouse", "details": "5 μM, 3×/wk/5 wk; versus AID(S)-TAT; FIG. 15", "source_text": "Twenty to thirty week-old male mice expressing the human cTnI gene encoding the human disease-causing cTnI-G203S were generated and used for the in vivo studies. By way of background, the mice develop hallmark features of HCM between 20 and 25 weeks (Viola H, Johnstone V, Cserne Szappanos H, Richman T, Tsoutsman T, Filipovska A, et al. The L-type Ca(2+) channel facilitates abnormal metabolic activity in the cTnI-G2035 mouse model of hypertrophic cardiomyopathy. J Physiol. 2016; 594(14):4051-70; Viola H M, Shah A A, Johnstone V P A, Cserne Szappanos H, Hodson M P, Hool L C. Characterization and validation of a preventative therapy for hypertrophic cardiomyopathy in a murine model of the disease. Proc Nati Aced Sci U S A. 2020; 117(37):23113-24; Tsoutsman T, Chung J, Doolan A, Nguyen L, Williams IA, Tu E, et al. Molecular insights from a novel cardiac troponin I mouse model of familial hypertrophic cardiomyopathy. J Mol Cell Cardiol. 2006; 41(4):623-32). Age-matched male mice expressing the normal human troponin I gene were used as controls and indicated as wild-type (wt). For in vivo studies, 20-week old cTnI-G203S mice were treated with 10 μM AID(S)-TAT (2 mg/kg) or 5 μM AID-TAT mutant peptides via intraperitoneal injection, 3 times per week for a total duration of 5 weeks. The peptide was dissolved in phosphate buffered saline solution (PBS), and the total amount of the 10 μM AID-TAT mutant peptides administered over 5 weeks was 0.9 mg. The total amount of the 5 μM AID-TAT mutant peptides administered over 5 weeks was 0.45 mg Male mice were utilized to eliminate potential differences in responses due to gender. The number of mice used is indicated by N.\nEchocardiographic studies to measure left ventricular function were performed on mice under light methoxyflurane anaesthesia with the use of an i13L probe on a Vivid™ 7 IQ ultrasound system (GE Healthcare, Little Chalfont, UK) as previously described (Viola H, Johnstone V, Cserne Szappanos H, Richman T, Tsoutsman T, Filipovska A, et al. The L-type Ca(2+) channel facilitates abnormal metabolic activity in the cTnI-G2035 mouse model of hypertrophic cardiomyopathy. J Physiol. 2016; 594(14):4051-70; Viola H M, Shah A A, Johnstone V P A, Cserne Szappanos H, Hodson M P, Hool L C. Characterization and validation of a preventative therapy for hypertrophic cardiomyopathy in a murine model of the disease. Proc Natl Acad Sci U S A. 2020; 117(37):23113-24; Viola H M, Johnstone V P A, Cserne Szappanos H, Richman T R, Tsoutsman T, Filipovska A, et al. The Role of the L-Type Ca(2+) Channel in Altered Metabolic Activity in a Murine Model of Hypertrophic Cardiomyopathy. JACC Basic Transl Sci. 2016; 1(1-2):61-72). Each N represents the average of quantitative measurements from wt or cTnI-G203S mice for each treatment group."}}, "data": [{"substance": "QQEEEDLKGYLDWITQAE (Varian P14) [Variant P14]", "values": [{"measurement": "BayK(−) induced increase in flavoprotein oxidation", "setting": "[1]", "result": "effective"}, {"measurement": "flavoprotein oxidation in comparison with AID-TAT peptide", "setting": "[2]", "result": "statistically significant reduction in flavoprotein oxidation in comparison with AID-TAT peptide"}, {"measurement": "K0.5 values compared to AID peptide", "setting": "[3]", "result": "decreased K0.5 values"}, {"measurement": "binding affinity (K0.5) for the target β2 subunit versus the original AID peptide", "setting": "[4]", "result": "greater binding affinity (lower K0.5)"}]}, {"substance": "AIDP16-TAT: QQREEDLKGYLDWITQAE with TAT sequence", "values": [{"measurement": "IVSd, intraventricular septum in diastole", "setting": "[5]", "result": "restored IVSd and IVSs only"}, {"measurement": "IVSs, intraventricular septum in systole", "setting": "[5]", "result": "restored IVSd and IVSs only"}]}, {"substance": "QQREEDLKGYLDWITQAE (Variant P16)", "values": [{"measurement": "K0.5 values compared to AID peptide", "setting": "[3]", "result": "decreased K0.5 values"}, {"measurement": "binding affinity (K0.5) for the target β2 subunit versus the original AID peptide", "setting": "[4]", "result": "greater binding affinity (lower K0.5)"}]}, {"substance": "QQEEEDEKGYLDWITQAE (Variant P15)", "values": [{"measurement": "BayK(−) induced increase in flavoprotein oxidation", "setting": "[1]", "result": "effective"}, {"measurement": "flavoprotein oxidation in comparison with AID-TAT peptide", "setting": "[2]", "result": "statistically significant reduction in flavoprotein oxidation in comparison with AID-TAT peptide"}, {"measurement": "K0.5 values compared to AID peptide", "setting": "[3]", "result": "decreased K0.5 values"}, {"measurement": "binding affinity (K0.5) for the target β2 subunit versus the original AID peptide", "setting": "[4]", "result": "greater binding affinity (lower K0.5)"}]}]}
